Measured values reported in paper PMC5818615, “Use of HuH6 and other human-derived hepatoma lines for the detection of genotoxins: a new hope for laboratory animals?” (Archives of Toxicology, 2017).
Where two headings read alike, the source gives them in different places. Marks after values point to notes of the source that are not given here.

Columns and labels:
HuH6 cells = test system: HuH6 cells
Protocol: (§1) The SCGE experiments were conducted as described in an international guideline (Tice et al. [2000]). Reagents for the assays (lysis solution and alkaline electrophoresis buffer) and agarose-coated slides were prepared according to Collins and Dusinska ([2009]).
(§2) Briefly, cells were sub-cultured in 1.0 ml medium in 24–well tissue-culture plates (Sarstedt Inc., Newton, NC, USA). After 24 h, the media were changed and the cells exposed to different concentrations of the test compounds or to the solvent controls (PBS or DMSO). […] To terminate the treatment, the cells were washed twice with PBS (1.0 ml), trypsinized (100 µl T/E per well, 4 min) and then resuspended in 400 µl culture medium containing FBS. Subsequently, the suspensions were transferred to Eppendorf tubes and centrifuged (200g, 5 min). Cell pellets were resuspended in cold PBS.
(§3) In all experiments, acute toxic effects were determined with a CASY® Cell Counter and Analyzer System (Schärfe-System GmbH, Reutlingen, Germany) (Lindl et al. [2005]). SCGE assays were only performed when the viability of the cultures was ≥ 70% (Koppen et al. [2017]). Per experimental point, two cultures were set up in parallel and from each one slide with two separate gels (30,000 cells/gel) was prepared. After unwinding (40 min, pH > 13) and electrophoresis (30 min, 0.75 V/cm, ~ 300 mA, 4 °C, pH > 13), 50 cells were evaluated per gel (200 cells per experimental point). As an endpoint, we determined the tail intensities (“% DNA in tail”) with a computer-aided system Comet Assay IV (Perceptive Instruments, Bury St Edmunds, UK), which is at present the most widely used parameter (Collins et al. [2008]; Moller [2006]). For each gel, the median of the tail intensity was calculated.

PLC/PRF cells = test system: PLC/PRF cells
Protocol: as §1, §2, §3

HCC 1.2 cells = test system: HCC 1.2 cells
Protocol: as §1, §2, §3

SNU-449 cells = test system: SNU-449 cells
Protocol: as §1, §2, §3

WRL68 cells = test system: WRL68 cells
Protocol: as §1, §2, §3

HepG2 cells = test system: HepG2 cells
Protocol: as §1, §2, §3

SNU-398 cells = test system: SNU-398 cells
Protocol: as §1, §2, §3

[1] = test system: human derived liver cell lines
Protocol: as §1, §2, §3

Hep3B cells = test system: Hep3B cells
Protocol: as §1, §2, §3

HuH7 cells = test system: HuH7 cells
Protocol: as §1, §2, §3

HepaRG cells [2] = test system: HepaRG cells
Protocol: as §1, §2, §3

SK-Hep1 cells = test system: SK-Hep1 cells
Protocol: as §1, §2, §3

HepaRG cells [3] = conditions: ref Le Hegarat et al. [2014]; cited from earlier work
[4] = test system: primary human hepatocytes; conditions: cited from earlier work
JHH6 cells = test system: JHH6 cells
Protocol: as §1, §2, §3

p53 protein = assay: Induction of p53 protein expression (Western Blot) in liver cell lines; format: cell-based, human; design: key to P53 protein expression (Western Blot) Induced: No expression is indicated with −; background expression with +; induced expression with ++; highly induced expression with +++; conditions: for P53 protein expression (Western Blot) Induced: 30 µM B(a)P for 24 h
Protocol: (§4) The expression of the p53 gene in the different cell lines was analyzed using real-time quantitative PCR (RT-qPCR) according to the description of Straser et al. ([2013]). The protein was quantified by Western blotting as described by Pezdirc et al. ([2013]).

p53 gene = assay: Induction of p53 gene expression (RT-qPCR) in liver cell lines; format: cell-based, human; conditions: 30 µM B(a)P for 24 h
Protocol: as §4

aflatoxin B1 [AFB1]
% DNA in tail (HuH6 cells): 1.50 ± 1.09 3.35 ± 2.75 7.20 ± 3.1* 11.9 ± 4.30 % | % DNA in tail (PLC/PRF cells): 1.84 ± 1.44 4.57 ± 1.83 4.77 ± 1.75 6.68 ± 2.94 % | % DNA in tail (HCC 1.2 cells): 1.38 ± 0.48 3.74 ± 2.69 4.02 ± 1.22 8.75 ± 1.48 % | % DNA in tail (SNU-449 cells): 2.87 ± 2.05 2.04 ± 2.18 1.14 ± 1.95 3.37 ± 3.14% | % DNA in tail (WRL68 cells): 3.14 ± 1.66 2.32 ± 0.89 1.98 ± 0.41 1.72 ± 0.78% | % DNA in tail (HepG2 cells): 1.02 ± 0.28 0.85 ± 0.41 2.96 ± 0.66* 5.17 ± 1.57 % | % DNA in tail (SNU-398 cells): 2.50 ± 1.08 2.53 ± 1.68 3.06 ± 0.28 2.83 ± 0.61% | Number of the twelve lines sensitive towards the compound [1]: Seven out of twelve lines | % DNA in tail (Hep3B cells): 0.93 ± 0.86 1.35 ± 0.81 4.03 ± 1.93* 4.31 ± 0.92 % | % DNA in tail (HuH7 cells): 6.29 ± 1.57 2.76 ± 0.52 3.12 ± 0.70 5.81 ± 4.64% | % DNA in tail (HepaRG cells [2]): 4.16 ± 1.40 11.6 ± 1.50* 9.67 ± 2.17* 7.5 ± 1.76 % | Result of SCGE experiments (in words) (HepaRG cells [2]): detected | % DNA in tail (SK-Hep1 cells): 0.60 ± 0.41 1.30 ± 0.37 1.13 ± 0.72 1.24 ± 0.88%

CC(=O)Nc1ccc2c(c1)Cc1ccccc1-2 [2-acetylaminofluorene]
Result of SCGE experiments (in words) (HepaRG cells [3]): negative results

N-nitrosodimethylamine [NDMA]
Sensitivity of primary hepatocytes compared with HepG2 [4]: substantially stronger effects | % DNA in tail (HuH6 cells): 1.73 ± 2.62 2.91 ± 1.45 6.86 ± 1.74* 13.1 ± 4.41 % | % DNA in tail (JHH6 cells): 1.17 ± 1.11 1.33 ± 0.66 1.69 ± 0.81 1.16 ± 0.53% | % DNA in tail (PLC/PRF cells): 1.15 ± 1.25 1.04 ± 0.33 1.65 ± 1.55 1.09 ± 0.33% | % DNA in tail (HCC 1.2 cells): 1.77 ± 1.64 16.3 ± 4.52* 17.1 ± 3.64* 8.87 ± 0.30 % | % DNA in tail (SNU-449 cells): 0.23 ± 0.16 0.52 ± 0.24 0.54 ± 0.11 0.15 ± 0.03% | % DNA in tail (WRL68 cells): 0.43 ± 0.22 1.03 ± 0.74 0.93 ± 0.05 0.12 ± 0.01% | % DNA in tail (HepG2 cells): 0.35 ± 0.21 0.83 ± 0.26 1.12 ± 0.72 1.55 ± 0.49 % | % DNA in tail (SNU-398 cells): 0.40 ± 0.14 0.65 ± 0.50 0.83 ± 0.53 0.28 ± 0.11% | Doses required to cause significant effects in SCGE assays [1]: ≥ 100 mM | Number of the twelve lines sensitive towards the compound [1]: five | % DNA in tail (Hep3B cells): 0.57 ± 0.21 0.62 ± 0.45 0.92 ± 0.45 0.61 ± 0.47% | % DNA in tail (HuH7 cells): 0.61 ± 0.35 0.69 ± 0.48 0.77 ± 0.60 3.01 ± 2.11 % | Result of SCGE experiments (in words) (HuH7 cells): induction of DNA damage was found | % DNA in tail (HepaRG cells [2]): 0.96 ± 0.59 1.47 ± 0.10 1.41 ± 1.04 5.09 ± 0.52 % | Result of SCGE experiments (in words) (HepaRG cells [2]): detected | % DNA in tail (SK-Hep1 cells): 0.46 ± 0.16 0.70 ± 0.42 0.59 ± 0.24 0.37 ± 0.34%

c1ccc2c(c1)cc1ccc3cccc4ccc2c1c34 [B(a)P, benzo(a)pyrene]
P53 protein expression (Western Blot) Induced (p53 protein; HCC 1.2 cells, background +, mutated p53): + | P53 protein expression (Western Blot) Induced (p53 protein; Hep3B cells, background −): − | p53 protein induction (in words) (p53 protein; HepG2, B(a)P treatment for 24 h): induced | P53 protein expression (Western Blot) Induced (p53 protein; HepG2 cells, background +): +++ | P53 protein expression (Western Blot) Induced (p53 protein; HepaRG cells, background +): + | p53 protein induction (in words) (p53 protein; HuH6, B(a)P treatment for 24 h): induced | P53 protein expression (Western Blot) Induced (p53 protein; HuH6 cells, background +): ++ | P53 protein expression (Western Blot) Induced (p53 protein; HuH7 cells, background +): + | P53 protein expression (Western Blot) Induced (p53 protein; JHH6 cells, background +): + | P53 protein expression (Western Blot) Induced (p53 protein; PLC/PRF cells, background +): + | P53 protein expression (Western Blot) Induced (p53 protein; SK-Hep1 cells, background +): + | P53 protein expression (Western Blot) Induced (p53 protein; SNU-398 cells, background +, mutated p53): + | P53 protein expression (Western Blot) Induced (p53 protein; SNU-449 cells, background +): + | P53 protein expression (Western Blot) Induced (p53 protein; WRL68 cells, background +): + | DNA migration in comet assay ([4]; primary liver cells, 50 µM, 3 h, statistically not analyzed, ref Monteith and Vanstone [1995]): increase of DNA migration | Sensitivity of primary hepatocytes compared with HepG2 ([4]; ref Wilkening et al. [2003]): no difference | P53 gene expression (RT-qPCR) Induced (p53 gene; HCC 1.2 cells, background 1): 1.50 ± 0.33 | P53 gene expression (RT-qPCR) Induced (p53 gene; Hep3B cells, background 0): 0 | P53 gene expression (RT-qPCR) Induced (p53 gene; HepG2 cells, background 1): 1.48 ± 0.18 | P53 gene expression (RT-qPCR) Induced (p53 gene; HepaRG cells, background 1): 0.87 ± 0.14 | P53 gene expression (RT-qPCR) Induced (p53 gene; HuH6 cells, background 1): 1.26 ± 0.01 | P53 gene expression (RT-qPCR) Induced (p53 gene; HuH7 cells, background 1): 1.13 ± 0.01 | P53 gene expression (RT-qPCR) Induced (p53 gene; JHH6 cells, background 1): 1.00 ± 0.03 | P53 gene expression (RT-qPCR) Induced (p53 gene; PLC/PRF cells, background 1): 0.89 ± 0.05 | P53 gene expression (RT-qPCR) Induced (p53 gene; SK-Hep1 cells, background 1): 1.04 ± 0.12 | P53 gene expression (RT-qPCR) Induced (p53 gene; SNU-398 cells, background 1): 1.03 ± 0.15 | P53 gene expression (RT-qPCR) Induced (p53 gene; SNU-449 cells, background 1): 0.95 ± 0.03 | P53 gene expression (RT-qPCR) Induced (p53 gene; WRL68 cells, background 1): 0.96 ± 0.03

Cc1ccc(N)cc1N [2,4-diaminotoluene]
Result of SCGE experiments (in words) (HepaRG cells [3]): negative results

OO [H2O2, hydrogen peroxide]
Sensitivity towards H2O2-induced DNA damage (HepaRG cells [2]): by far less sensitive
